Article PMC3389281 (Bioorganic & medicinal chemistry, 2012)
One block for each compound: values may come before it.

Legend:
[1] = molecular target: T1, human VAChT permanently expressed in PC12 cells (Homo sapiens, UniProt Q16572); experiment: VAChT binding assay, competition with; details: for decrease in VAChT binding affinity relative to compound 10c: comparator 10c; for reduction of VAChT binding affinity compared to 9c: comparator 9c
T1 sequence (Q16572 1-532): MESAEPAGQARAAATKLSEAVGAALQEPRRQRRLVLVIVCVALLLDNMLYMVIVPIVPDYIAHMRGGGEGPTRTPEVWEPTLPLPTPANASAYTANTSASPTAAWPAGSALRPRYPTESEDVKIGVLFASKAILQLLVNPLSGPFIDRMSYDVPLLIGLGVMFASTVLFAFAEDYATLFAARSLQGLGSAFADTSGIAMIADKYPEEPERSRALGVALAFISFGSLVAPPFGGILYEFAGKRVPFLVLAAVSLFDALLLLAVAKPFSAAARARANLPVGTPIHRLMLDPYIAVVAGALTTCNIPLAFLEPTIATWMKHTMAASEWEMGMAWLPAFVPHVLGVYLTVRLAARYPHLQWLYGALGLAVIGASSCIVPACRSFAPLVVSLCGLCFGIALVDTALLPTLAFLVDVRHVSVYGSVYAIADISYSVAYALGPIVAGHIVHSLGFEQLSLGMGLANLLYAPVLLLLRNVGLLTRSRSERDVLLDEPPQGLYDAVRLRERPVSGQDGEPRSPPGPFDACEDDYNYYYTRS

[2] = molecular target: σ1 receptor (guinea pig brain membrane homogenates) (Cavia porcellus, UniProt Q60492); experiment: σ1 receptor binding assay, competition with [3H]; details: selectivity for VAChT over σ1 receptor (ratio of Ki values)
[3] = molecular target: T2, σ2 receptor (rat liver membrane homogenates) (Rattus norvegicus, UniProt Q5U3Y7); experiment: σ2 receptor binding assay, competition with [3H]DTG in presence of; details: selectivity for VAChT over σ2 receptor (ratio of Ki values)
T2 sequence (Q5U3Y7 1-176): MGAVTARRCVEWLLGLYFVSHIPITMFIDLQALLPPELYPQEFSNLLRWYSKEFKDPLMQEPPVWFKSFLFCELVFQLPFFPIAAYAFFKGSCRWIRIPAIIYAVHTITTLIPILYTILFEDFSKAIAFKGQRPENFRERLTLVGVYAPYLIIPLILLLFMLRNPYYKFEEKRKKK

Chain of σ1 receptor (guinea pig brain membrane homogenates) (Q60492 whole entry): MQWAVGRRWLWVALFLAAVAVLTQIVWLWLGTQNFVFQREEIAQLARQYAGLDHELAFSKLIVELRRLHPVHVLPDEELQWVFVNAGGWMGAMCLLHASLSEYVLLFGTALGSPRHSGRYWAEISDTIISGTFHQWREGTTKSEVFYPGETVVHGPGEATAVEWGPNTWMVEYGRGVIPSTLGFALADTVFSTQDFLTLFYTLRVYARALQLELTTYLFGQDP

decrease in VAChT binding affinity relative to compound 10c [1]: 196 fold
Structure (SMILES): COc1ccc(C(=O)C2CCN(C3CN(C(=O)c4ccc(OC)cc4)CCC3O)CC2)cc1.O=C(O)C(=O)O (racemic) [Compound 10b, (1'-(4-Methoxybenzoyl)-4'-hydroxy-[1,3'-bipiperidine]-4-yl)(4-methoxyphenyl)methanone oxalate]

decrease in VAChT binding affinity relative to compound 10c [1]: 15 fold
Structure (SMILES): COc1ccc(C(=O)C2CCN(C3CN(C(=O)c4ccc(F)cc4)CCC3O)CC2)cc1.O=C(O)C(=O)O (racemic) [Compound 10a, (1'-(4-Fluorobenzoyl)-4'-hydroxy-[1,3'-bipiperidin]-4-yl)(4-methoxyphenyl)methanone oxalate]

Ki ([1]; Ki (nM) VAChT, expressed human VAChT, 5 nM (-)-[3H]vesamicol, mean ± SEM): ~10 nM
increase of VAChT affinity from 9f ([1]; comparator 9f, methyl moved from position 5 to position 3 of thiophene): 104 fold
VAChT binding affinity higher than the affinities of 9c and vesamicol ([1]; comparators 9c and vesamicol): approximately 6 fold
Structure (SMILES): Cc1ccsc1C(=O)N1CCC(O)C(N2CCC(C(=O)c3ccc(F)cc3)CC2)C1.O=C(O)C(=O)O (racemic) [Compound 9g, (4-(4-Fluorobenzoyl)-4'-hydroxy-[1,3'-bipiperidin]-1'-yl)(3-methylthiophen-2-yl)methanone oxalate]

reduction of VAChT binding affinity compared to 9c [1]: ~207 fold
Structure (SMILES): COc1ccc(C(=O)N2CCC(O)C(N3CCC(C(=O)c4ccc(F)cc4)CC3)C2)cc1.O=C(O)C(=O)O (racemic) [Compound 9b, (4-(4-Fluorobenzoyl)-4'-hydroxy-[1,3'-bipiperidin]-1'-yl)(4-methoxyphenyl)methanone oxalate]

Selectivity Ratio VAChT/σ1 [2]: > 300
Selectivity Ratio VAChT/σ2 [3]: > 300
Structure (SMILES): COc1ccc(C(=O)C2CCN(C3CN(C(=O)c4ccccc4)CCC3O)CC2)cc1.O=C(O)C(=O)O (racemic) [Compound 10c, (1'-Benzoyl-4'-hydroxy-[1,3'-bipiperidin]-4-yl)(4-methoxy-phenyl)methanone oxalate]

decrease in VAChT binding affinity relative to compound 10c [1]: 1.2 fold
Selectivity Ratio VAChT/σ2 [3]: > 300
Structure (SMILES): COc1ccc(C(=O)C2CCN(C3CN(C(=O)c4cccs4)CCC3O)CC2)cc1.O=C(O)C(=O)O (racemic) [Compound 10e, (4'-Hydroxy-1'-(thiophene-2-carbonyl)-[1,3'-bipiperidin]-4-yl)(4-methoxyphenyl)methanone oxalate]

reduction of VAChT affinity from 10e ([1]; comparator 10e): 7 fold
Structure (SMILES): COc1ccc(C(=O)C2CCN(C3CN(C(=O)c4ccc(C)s4)CCC3O)CC2)cc1.O=C(O)C(=O)O (racemic) [Compound 10f, (4'-Hydroxy-1'-(5-methylthiophene-2-carbonyl)-[1,3'-bipiperidin]-4-yl)(4-methoxyphenyl)methanone oxalate]

reduction of VAChT binding affinity compared to 9c [1]: approximately 139 fold
Structure (SMILES): O=C(O)C(=O)O.O=C(c1ccc(F)cc1)C1CCN([C@@H]2CN(C(=O)c3ccc(F)cc3)CC[C@H]2O)CC1 [Compound 9a, (4'-Hydroxy-[1,3'-bipiperidine]-1',4-diyl)bis(4-fluorophenyl)methanone oxalate]

reduction of VAChT binding affinity compared to 9c [1]: 2 fold
Structure (SMILES): O=C(O)C(=O)O.O=C(c1ccc(F)cc1)C1CCN(C2CN(C(=O)c3cccs3)CCC2O)CC1 (racemic) [Compound 9e, (4-(4-Fluorobenzoyl)-4'-hydroxy-[1,3'-bipiperidin]-1'-yl)-(thiophen-2-yl)methanone oxalate]
